Laboratory results reported in PubChem BioAssay AID1259407 (Chemical Carcinogenesis Research Information System (CCRIS), 2018).
The source made the active and inactive calls. No rule for the calls is given here.

Test system: CCRIS mutagenicity, Ames/micronucleus/aberration tests
Experiment: CCRIS mutagenicity studies
[1] = Test System: AMES SALMONELLA TYPHIMURIUM, Strain/Indicator: TA98, Metabolic Activation: NONE, Method: PREINCUBATION
[2] = Test System: AMES SALMONELLA TYPHIMURIUM, Strain/Indicator: TA100, Metabolic Activation: NONE, Method: PREINCUBATION

## CC(C)(OOC(C)(C)c1ccccc1)c1ccccc1
Test System: AMES SALMONELLA TYPHIMURIUM, Strain/Indicator: TA97, Metabolic Activation: HAMSTER, LIVER, S-9, AROCLOR 1254 (10 OR 30%), Method: PREINCUBATION
  mutagenic call: inactive; negative
Test System: AMES SALMONELLA TYPHIMURIUM, Strain/Indicator: TA97, Metabolic Activation: NONE, Method: PREINCUBATION
  mutagenic call: inactive; negative
Test System: AMES SALMONELLA TYPHIMURIUM, Strain/Indicator: TA97, Metabolic Activation: RAT, LIVER, S-9, AROCLOR 1254 (10 OR 30%), Method: PREINCUBATION
  mutagenic call: inactive; negative
Test System: AMES SALMONELLA TYPHIMURIUM, Strain/Indicator: TA97A, Metabolic Activation: MOUSE LIVER S-9, AROCLOR 1254, Method: PREINCUBATION
  mutagenic call: inactive; negative
Test System: AMES SALMONELLA TYPHIMURIUM, Strain/Indicator: TA97A, Metabolic Activation: NONE, Method: PREINCUBATION
  mutagenic call: inactive; negative
Test System: AMES SALMONELLA TYPHIMURIUM, Strain/Indicator: TA97A, Metabolic Activation: RAT LIVER S-9, AROCLOR 1254, Method: PREINCUBATION
  mutagenic call: inactive; negative
Test System: AMES SALMONELLA TYPHIMURIUM, Strain/Indicator: TA98, Metabolic Activation: HAMSTER, LIVER, S-9, AROCLOR 1254 (10 OR 30%), Method: PREINCUBATION
  mutagenic call: inactive; negative
Test System: AMES SALMONELLA TYPHIMURIUM, Strain/Indicator: TA98, Metabolic Activation: NONE, Method: FLUCTUATION (MICROTITER)
  mutagenic call: inactive; negative
[1]
  mutagenic call: inactive; negative
Test System: AMES SALMONELLA TYPHIMURIUM, Strain/Indicator: TA98, Metabolic Activation: RAT LIVER S-9, AROCLOR 1254, Method: FLUCTUATION (MICROTITER)
  mutagenic call: inactive; negative
Test System: AMES SALMONELLA TYPHIMURIUM, Strain/Indicator: TA98, Metabolic Activation: RAT, LIVER, S-9, AROCLOR 1254 (10 OR 30%), Method: PREINCUBATION
  mutagenic call: inactive; negative
Test System: AMES SALMONELLA TYPHIMURIUM, Strain/Indicator: TA100, Metabolic Activation: HAMSTER, LIVER, S-9, AROCLOR 1254 (10 OR 30%), Method: PREINCUBATION
  mutagenic call: inactive; negative
Test System: AMES SALMONELLA TYPHIMURIUM, Strain/Indicator: TA100, Metabolic Activation: MOUSE LIVER S-9, AROCLOR 1254, Method: PREINCUBATION
  mutagenic call: inactive; negative
[2]
  mutagenic call: inactive; negative
Test System: AMES SALMONELLA TYPHIMURIUM, Strain/Indicator: TA100, Metabolic Activation: RAT LIVER S-9, AROCLOR 1254, Method: PREINCUBATION
  mutagenic call: inactive; negative
Test System: AMES SALMONELLA TYPHIMURIUM, Strain/Indicator: TA100, Metabolic Activation: RAT, LIVER, S-9, AROCLOR 1254 (10 OR 30%), Method: PREINCUBATION
  mutagenic call: inactive; negative
Test System: AMES SALMONELLA TYPHIMURIUM, Strain/Indicator: TA102, Metabolic Activation: NONE, Method: PREINCUBATION
  mutagenic call: inactive; negative
Test System: AMES SALMONELLA TYPHIMURIUM, Strain/Indicator: TA102, Metabolic Activation: RAT LIVER S-9, AROCLOR 1254, Method: PREINCUBATION
  mutagenic call: inactive; negative
Test System: AMES SALMONELLA TYPHIMURIUM, Strain/Indicator: TA104, Metabolic Activation: MOUSE LIVER S-9, AROCLOR 1254, Method: PREINCUBATION
  mutagenic call: inactive; negative
Test System: AMES SALMONELLA TYPHIMURIUM, Strain/Indicator: TA104, Metabolic Activation: NONE, Method: PREINCUBATION
  mutagenic call: inactive; negative
Test System: AMES SALMONELLA TYPHIMURIUM, Strain/Indicator: TA104, Metabolic Activation: RAT LIVER S-9, AROCLOR 1254, Method: PREINCUBATION
  mutagenic call: inactive; negative
Test System: AMES SALMONELLA TYPHIMURIUM, Strain/Indicator: TA1535, Metabolic Activation: HAMSTER, LIVER, S-9, AROCLOR 1254 (10 OR 30%), Method: PREINCUBATION
  mutagenic call: inactive; negative
Test System: AMES SALMONELLA TYPHIMURIUM, Strain/Indicator: TA1535, Metabolic Activation: NONE, Method: PREINCUBATION
  mutagenic call: inactive; negative
Test System: AMES SALMONELLA TYPHIMURIUM, Strain/Indicator: TA1535, Metabolic Activation: RAT, LIVER, S-9, AROCLOR 1254 (10 OR 30%), Method: PREINCUBATION
  mutagenic call: inactive; negative
Test System: AMES SALMONELLA TYPHIMURIUM, Strain/Indicator: TA1537, Metabolic Activation: NONE, Method: FLUCTUATION (MICROTITER)
  mutagenic call: inactive; negative
Test System: AMES SALMONELLA TYPHIMURIUM, Strain/Indicator: TA1537, Metabolic Activation: RAT LIVER S-9, AROCLOR 1254, Method: FLUCTUATION (MICROTITER)
  mutagenic call: inactive; negative
Test System: AMES SALMONELLA TYPHIMURIUM, Strain/Indicator: TA7001, Metabolic Activation: NONE, Method: FLUCTUATION (MICROTITER)
  mutagenic call: inactive; negative
Test System: AMES SALMONELLA TYPHIMURIUM, Strain/Indicator: TA7001, Metabolic Activation: RAT LIVER S-9, AROCLOR 1254, Method: FLUCTUATION (MICROTITER)
  mutagenic call: inactive; negative
Test System: AMES SALMONELLA TYPHIMURIUM, Strain/Indicator: TA7002, Metabolic Activation: NONE, Method: FLUCTUATION (MICROTITER)
  mutagenic call: inactive; negative
Test System: AMES SALMONELLA TYPHIMURIUM, Strain/Indicator: TA7002, Metabolic Activation: RAT LIVER S-9, AROCLOR 1254, Method: FLUCTUATION (MICROTITER)
  mutagenic call: inactive; negative
Test System: AMES SALMONELLA TYPHIMURIUM, Strain/Indicator: TA7003, Metabolic Activation: NONE, Method: FLUCTUATION (MICROTITER)
  mutagenic call: inactive; negative
Test System: AMES SALMONELLA TYPHIMURIUM, Strain/Indicator: TA7003, Metabolic Activation: RAT LIVER S-9, AROCLOR 1254, Method: FLUCTUATION (MICROTITER)
  mutagenic call: inactive; negative
Test System: AMES SALMONELLA TYPHIMURIUM, Strain/Indicator: TA7004, Metabolic Activation: NONE, Method: FLUCTUATION (MICROTITER)
  mutagenic call: inactive; negative
Test System: AMES SALMONELLA TYPHIMURIUM, Strain/Indicator: TA7004, Metabolic Activation: RAT LIVER S-9, AROCLOR 1254, Method: FLUCTUATION (MICROTITER)
  mutagenic call: inactive; negative
Test System: AMES SALMONELLA TYPHIMURIUM, Strain/Indicator: TA7005, Metabolic Activation: NONE, Method: FLUCTUATION (MICROTITER)
  mutagenic call: inactive; negative
Test System: AMES SALMONELLA TYPHIMURIUM, Strain/Indicator: TA7005, Metabolic Activation: RAT LIVER S-9, AROCLOR 1254, Method: FLUCTUATION (MICROTITER)
  mutagenic call: inactive; negative
Test System: AMES SALMONELLA TYPHIMURIUM, Strain/Indicator: TA7006, Metabolic Activation: NONE, Method: FLUCTUATION (MICROTITER)
  mutagenic call: inactive; negative
Test System: AMES SALMONELLA TYPHIMURIUM, Strain/Indicator: TA7006, Metabolic Activation: RAT LIVER S-9, AROCLOR 1254, Method: FLUCTUATION (MICROTITER)
  mutagenic call: inactive; negative

## CCN(Cc1cccc(S(=O)(=O)[O-])c1)c1ccc(C(=C2C=CC(=[N+](C)C)C=C2)c2ccc(N(CC)Cc3cccc(S(=O)(=O)O)c3)cc2)cc1
Test System: AMES SALMONELLA TYPHIMURIUM, Strain/Indicator: TA98, Metabolic Activation: HAMSTER, LIVER, S-9, AROCLOR 1254 (30%), Method: PREINCUBATION
  mutagenic call: active; positive
[1]
  mutagenic call: inactive; negative
Test System: AMES SALMONELLA TYPHIMURIUM, Strain/Indicator: TA98, Metabolic Activation: RAT, LIVER, S-9, AROCLOR 1254 (30%), Method: PREINCUBATION
  mutagenic call: active; positive
Test System: AMES SALMONELLA TYPHIMURIUM, Strain/Indicator: TA98, Metabolic Activation: RAT, LIVER, S-9, KC500 OR PHENOBARBITAL, Method: LIQUID SUSPENSION
  mutagenic call: active; positive
Test System: AMES SALMONELLA TYPHIMURIUM, Strain/Indicator: TA100, Metabolic Activation: HAMSTER, LIVER, S-9, AROCLOR 1254 (30%), Method: PREINCUBATION
  mutagenic call: inactive; negative
[2]
  mutagenic call: inactive; negative
Test System: AMES SALMONELLA TYPHIMURIUM, Strain/Indicator: TA100, Metabolic Activation: RAT, LIVER, S-9, AROCLOR 1254 (30%), Method: PREINCUBATION
  mutagenic call: inactive; negative
Test System: Mouse lymphoma, Strain/Indicator: L5178Y (tk+/tk-), Metabolic Activation: None, Method: Suspension/plate
  mutagenic call: active; positive
Test System: Mouse lymphoma, Strain/Indicator: L5178Y (tk+/tk-), Metabolic Activation: Rat,Liver, S-9, Aroclor 1254, Method: Suspension/plate
  mutagenic call: inactive; negative

## COc1ccc2c(c1OC)c(=O)n(C)c1c3cc4c(cc3ccc21)OCO4
Test System: AMES SALMONELLA TYPHIMURIUM, Strain/Indicator: TA100, Metabolic Activation: RAT, LIVER, S-9, PHENOBARBITAL AND BETA-NAPHTHOFLAVONE, Method: PREINCUBATION
  mutagenic call: active; positive

## CCCCNC(=O)NS(=O)(=O)c1ccc(C)cc1
End Point: IN VITRO CHROMOSOMAL ABERRATIONS, Test System: CHO-LB CELLS, Metabolic Activation: NONE
  mutagenic call: inactive; negative
End Point: IN VITRO CHROMOSOMAL ABERRATIONS, Test System: CHO-LB CELLS, Metabolic Activation: RAT, LIVER, S-9, AROCLOR 1254
  mutagenic call: inactive; negative
